According to ChEMBL document CHEMBL3751819, “Navigating into the chemical space between MGCD0103 and SAHA: novel histone deacetylase inhibitors as a promising lead” (Medchemcomm, 2015):
pIC50: −log10 of the molar value. Activity calls are given as the source filed them. The rule behind the calls is not given here.

Legend:
A549 [1] = assay: Antiproliferative activity against human A549 cells assessed as reduction in cell viability after 24 hrs by MTT assay; type: functional, cell-based; details: A549, 24 h
A549 [2] = assay: Antiproliferative activity against human A549 cells assessed as reduction in cell viability after 48 hrs by MTT assay; type: functional, cell-based; details: A549, 48 h
A549 [3] = assay: Antiproliferative activity against human A549 cells assessed as reduction in cell viability after 72 hrs by MTT assay; type: functional, cell-based; details: A549, 72 h
HeLa [4] = assay: Antiproliferative activity against human HeLa cells assessed as reduction in cell viability after 24 hrs by MTT assay; type: functional, cell-based
HeLa [5] = assay: Antiproliferative activity against human HeLa cells assessed as reduction in cell viability after 48 hrs by MTT assay; type: functional, cell-based
HeLa [6] = assay: Antiproliferative activity against human HeLa cells assessed as reduction in cell viability after 72 hrs by MTT assay; type: functional, cell-based
HepG2 [7] = assay: Antiproliferative activity against human HepG2 cells assessed as reduction in cell viability after 24 hrs by MTT assay; type: functional, cell-based; details: HepG2, 24 h
HepG2 [8] = assay: Antiproliferative activity against human HepG2 cells assessed as reduction in cell viability after 48 hrs by MTT assay; type: functional, cell-based; details: HepG2, 48 h
HepG2 [9] = assay: Antiproliferative activity against human HepG2 cells assessed as reduction in cell viability after 72 hrs by MTT assay; type: functional, cell-based; details: HepG2, 72 h
[10] = Antiproliferative activity against human HCT116 cells assessed as reduction in cell viability after 24 hrs by MTT assay; type: functional, cell-based; details: HCT-116, 24 h
[11] = Antiproliferative activity against human HCT116 cells assessed as reduction in cell viability after 48 hrs by MTT assay; type: functional, cell-based; details: HCT-116, 48 h
[12] = Antiproliferative activity against human HCT116 cells assessed as reduction in cell viability after 72 hrs by MTT assay; type: functional, cell-based; details: HCT-116, 72 h
MCF7 [13] = assay: Antiproliferative activity against human MCF7 cells assessed as reduction in cell viability after 24 hrs by MTT assay; type: functional, cell-based; details: MCF7, 24 h
MCF7 [14] = assay: Antiproliferative activity against human MCF7 cells assessed as reduction in cell viability after 48 hrs by MTT assay; type: functional, cell-based; details: MCF7, 48 h
MCF7 [15] = assay: Antiproliferative activity against human MCF7 cells assessed as reduction in cell viability after 72 hrs by MTT assay; type: functional, cell-based; details: MCF7, 72 h
HeLa [16] = assay: Induction of apoptosis in human HeLa cells assessed as viable cells at 1.25 uM after 48 hrs by annexin-V-FITC/propidium iodide staining based flow cytometry (reference value: 88.6%); type: functional
HeLa [17] = assay: Induction of apoptosis in human HeLa cells assessed as early apoptotic cells at 1.25 uM after 48 hrs by annexin-V-FITC/propidium iodide staining based flow cytometry (reference value: 1.4%); type: functional
HeLa [18] = assay: Induction of apoptosis in human HeLa cells assessed as late apoptotic cells at 1.25 uM after 48 hrs by annexin-V-FITC/propidium iodide staining based flow cytometry (reference value: 9.3%); type: functional
HeLa [19] = assay: Induction of apoptosis in human HeLa cells assessed as necrotic cells at 1.25 uM after 48 hrs by annexin-V-FITC/propidium iodide staining based flow cytometry (reference value: 0.693%); type: functional
HeLa [20] = assay: Induction of apoptosis in human HeLa cells assessed as viable cells at 2.5 uM after 48 hrs by annexin-V-FITC/propidium iodide staining based flow cytometry (reference value: 88.6%); type: functional
HeLa [21] = assay: Induction of apoptosis in human HeLa cells assessed as early apoptotic cells at 2.5 uM after 48 hrs by annexin-V-FITC/propidium iodide staining based flow cytometry (reference value: 1.4%); type: functional
HeLa [22] = assay: Induction of apoptosis in human HeLa cells assessed as late apoptotic cells at 2.5 uM after 48 hrs by annexin-V-FITC/propidium iodide staining based flow cytometry (reference value: 9.3%); type: functional
HeLa [23] = assay: Induction of apoptosis in human HeLa cells assessed as necrotic cells at 2.5 uM after 48 hrs by annexin-V-FITC/propidium iodide staining based flow cytometry (reference value: 0.693%); type: functional
HeLa [24] = assay: Induction of apoptosis in human HeLa cells assessed as viable cells at 5 uM after 48 hrs by annexin-V-FITC/propidium iodide staining based flow cytometry (reference value: 88.6%); type: functional
HeLa [25] = assay: Induction of apoptosis in human HeLa cells assessed as early apoptotic cells at 5 uM after 48 hrs by annexin-V-FITC/propidium iodide staining based flow cytometry (reference value: 1.4%); type: functional
HeLa [26] = assay: Induction of apoptosis in human HeLa cells assessed as late apoptotic cells at 5 uM after 48 hrs by annexin-V-FITC/propidium iodide staining based flow cytometry (reference value: 9.3%); type: functional
HeLa [27] = assay: Induction of apoptosis in human HeLa cells assessed as necrotic cells at 5 uM after 48 hrs by annexin-V-FITC/propidium iodide staining based flow cytometry (reference value: 0.693%); type: functional
[28] = biological target: T1, Protein deacetylase HDAC6 (Homo sapiens) (UniProt Q9UBN7); assay: Inhibition of HDAC6 in human A549 cells assessed as increase in acetylated tubulin expression at 5 uM incubated for 12 hrs by DAPI staining based immunofluorescence microscopy; type: cell-based
T1 sequence (whole entry): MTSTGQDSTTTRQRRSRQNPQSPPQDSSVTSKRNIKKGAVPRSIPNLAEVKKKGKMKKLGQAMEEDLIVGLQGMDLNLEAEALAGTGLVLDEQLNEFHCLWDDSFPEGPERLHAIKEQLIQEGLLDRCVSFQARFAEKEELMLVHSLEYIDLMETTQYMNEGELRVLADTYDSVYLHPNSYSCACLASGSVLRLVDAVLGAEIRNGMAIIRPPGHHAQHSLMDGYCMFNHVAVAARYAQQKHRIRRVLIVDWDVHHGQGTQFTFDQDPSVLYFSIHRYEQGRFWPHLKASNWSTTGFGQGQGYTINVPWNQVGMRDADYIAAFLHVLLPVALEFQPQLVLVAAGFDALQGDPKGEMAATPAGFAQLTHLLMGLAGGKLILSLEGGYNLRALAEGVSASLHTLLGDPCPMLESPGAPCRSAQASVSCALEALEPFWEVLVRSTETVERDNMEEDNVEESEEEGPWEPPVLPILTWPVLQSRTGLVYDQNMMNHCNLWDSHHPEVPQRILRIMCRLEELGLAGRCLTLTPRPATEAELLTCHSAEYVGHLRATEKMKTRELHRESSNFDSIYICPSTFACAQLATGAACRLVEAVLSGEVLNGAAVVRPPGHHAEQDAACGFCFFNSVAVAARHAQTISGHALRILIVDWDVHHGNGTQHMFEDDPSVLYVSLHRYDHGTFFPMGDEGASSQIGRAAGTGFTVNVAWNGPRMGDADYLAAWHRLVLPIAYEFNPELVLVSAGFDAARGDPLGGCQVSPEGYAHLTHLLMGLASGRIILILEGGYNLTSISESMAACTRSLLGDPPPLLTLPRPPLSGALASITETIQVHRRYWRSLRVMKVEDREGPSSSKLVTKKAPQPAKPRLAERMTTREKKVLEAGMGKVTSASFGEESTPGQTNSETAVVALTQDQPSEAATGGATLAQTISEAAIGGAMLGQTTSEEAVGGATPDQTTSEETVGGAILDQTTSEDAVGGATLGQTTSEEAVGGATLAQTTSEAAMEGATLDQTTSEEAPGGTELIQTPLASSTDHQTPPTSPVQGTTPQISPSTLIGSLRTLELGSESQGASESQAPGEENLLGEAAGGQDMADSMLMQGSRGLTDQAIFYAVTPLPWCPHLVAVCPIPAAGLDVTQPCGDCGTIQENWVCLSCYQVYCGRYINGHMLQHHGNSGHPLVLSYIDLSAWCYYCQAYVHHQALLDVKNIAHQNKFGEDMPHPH

[29] = Half life in artificial gastric fluid; type: ADME
[30] = Half life in artificial intestinal fluid; type: ADME
[31] = Half life in mouse plasma; type: ADME, cell-free
[32] = Half life in mouse microsomes; type: ADME, Microsome
[33] = Elimination half life in po dosed patient plasma by HPLC/MS analysis; type: ADME, organism-based; details: human, read-out: beta t1/2 (converted)
[34] = Homo sapiens, HeLa, 48 h, read-out: Activity

With Nc1ccccc1NC(=O)c1ccc(CNc2nccc(-c3cccnc3)n2)cc1 [MOCETINOSTAT] as the molecule, how does the pIC50 (A549 [1]) read?
Its pIC50 is 4.22.

What about the pIC50 (A549 [2]) of the same molecule?
Its pIC50 is 4.84.

And the pIC50 (A549 [3])?
The pIC50 was 4.93.

What about the pIC50 (HeLa [4]) of the same molecule?
The pIC50 was 4.36.

What about the pIC50 (HeLa [5]) of the same molecule?
Its pIC50 is 5.48.

What about the pIC50 (HeLa [6]) of the same molecule?
Its pIC50 is 5.47.

What about the pIC50 (HepG2 [7]) of the same molecule?
The pIC50 was 5.24.

And the pIC50 (HepG2 [8])?
The pIC50 was 5.39.

What about the pIC50 (HepG2 [9]) of the same molecule?
Its pIC50 is 5.37.

What about the pIC50 [10] of the same molecule?
Its pIC50 is 4.53.

And the pIC50 [11]?
The pIC50 was 5.91.

What about the pIC50 [12] of the same molecule?
Its pIC50 is 5.45.

And the pIC50 (MCF7 [13])?
The pIC50 was 4.07.

What about the pIC50 (MCF7 [14]) of the same molecule?
Its pIC50 is 4.25.

And the pIC50 (MCF7 [15])?
Its pIC50 is 5.60.

What about the viability at 1.25 µM (HeLa [16]; [34]) of the same molecule?
Its viability at 1.25 µM is 87.1%.

And the Activity (HeLa [17])?
Its Activity is 3.9%.

What about the Activity (HeLa [18]) of the same molecule?
Its Activity is 8.23%.

And the Activity (HeLa [19])?
The Activity was 0.78%.

What about the viability at 2.5 µM (HeLa [20]; [34]) of the same molecule?
Its viability at 2.5 µM is 84.5%.

What about the Activity (HeLa [21]) of the same molecule?
The Activity was 9.13%.

And the Activity (HeLa [22])?
The Activity was 5.98%.

What about the Activity (HeLa [23]) of the same molecule?
The Activity was 0.437%.

And the viability at 5 µM (HeLa [24]; [34])?
Its viability at 5 µM is 74.6%.

What about the Activity (HeLa [25]) of the same molecule?
The Activity was 12.5%.

And the Activity (HeLa [26])?
The Activity was 11.6%.

What about the Activity (HeLa [27]) of the same molecule?
Its Activity is 1.33%.

And the inhibition [28]?
Its inhibition is “inactive”.

And the half-life [29]?
Its half-life is > 24 h.

What about the half-life [30] of the same molecule?
Its half-life is > 24 h.

What about the half-life [31] of the same molecule?
The half-life was 10 h.

And the half-life [32]?
The half-life was 2.62 h.

What about the half-life [33] of the same molecule?
Its half-life is 9 h.

With O=C(CCCCCCC(=O)Nc1ccccc1)NO [VORINOSTAT] as the molecule, how does the Activity (HeLa [16]) read?
The Activity was 85.1%.

What about the Activity (HeLa [17]) of the same molecule?
Its Activity is 4.1%.

What about the Activity (HeLa [18]) of the same molecule?
The Activity was 10.2%.

What about the Activity (HeLa [19]) of the same molecule?
Its Activity is 0.654%.

What about the Activity (HeLa [20]) of the same molecule?
The Activity was 77.4%.

And the Activity (HeLa [21])?
Its Activity is 6.56%.

What about the Activity (HeLa [22]) of the same molecule?
Its Activity is 15.1%.

What about the Activity (HeLa [23]) of the same molecule?
The Activity was 0.957%.

What about the Activity (HeLa [24]) of the same molecule?
The Activity was 83.9%.

What about the Activity (HeLa [25]) of the same molecule?
Its Activity is 7.84%.

And the Activity (HeLa [26])?
Its Activity is 7.6%.

What about the Activity (HeLa [27]) of the same molecule?
The Activity was 0.61%.

What about the half-life [30] of the same molecule?
Its half-life is > 24 h.

What about the half-life [31] of the same molecule?
Its half-life is 3 h.

And the half-life [32]?
The half-life was 1.33 h.
